Assay results taken from US9963455B2, “Pyrazolo[1,5-a]pyrimidines as antiviral compounds” (Curovir AB, priority 2014, dated 2018).

What was measured:
Assay type in all cases: cell-based
polio virus strain 1 = experiment: organism not typed; settings: read-out: % inh.
Ljungan virus strain 145 = experiment: CPE inhibition in mammalian cell culture, LV145; settings: Parechovirus B; LV145, Conc. 10.0 μM
[1] = test system: coxsackie B virus strain 2; experiment: CPE inhibition in mammalian cell culture, Cox-B2; settings: read-out: % inh.

## Cc1cc(NCCc2ccccc2)n2nc(C)c(-c3ccc(F)cc3)c2n1 [Ex. 14, 3-(4-fluorophenyl)-2,5-dimethyl-N-phenethyl-pyrazolo[1,5-a]pyrimidin-7-amine]
Polio virus strain 1
  inhibition at 10 µM: 73%

## COc1ccc(CCNc2cc(C)nc3c(-c4ccc(F)cc4)c(C)nn23)cc1OC [Ex. 15, N-[2-(3,4-dimethoxyphenyl)ethyl]-3-(4-fluorophenyl)-2,5-dimethyl-pyrazolo[1,5-a]pyrimidin-7-amine]
Polio virus strain 1
  inhibition at 10 µM: 75%

## Cc1cc(NC(C)c2ccccc2)n2nc(C)c(-c3ccc(F)cc3)c2n1 (centres unmarked) [Ex. 17, 3-(4-fluorophenyl)-2,5-dimethyl-N-(1-phenylethyl)pyrazolo[1,5-a]pyrimidin-7-amine]
Ljungan virus strain 145
  inhibition at 10 µM: 75%

## Cc1cc(NCc2ccccc2)n2ncc(-c3ccc(F)cc3)c2n1 [Ex. 18, N-benzyl-3-(4-fluorophenyl)-5-methyl-pyrazolo[1,5-a]pyrimidin-7-amine]
Polio virus strain 1
  inhibition at 10 µM: 51%

## COc1ccc(CCNc2cc(C)nc3c(-c4ccc(F)cc4)cnn23)cc1OC [Ex. 19, N-[2-(3,4-dimethoxyphenyl)ethyl]-3-(4-fluorophenyl)-5-methyl-pyrazolo[1,5-a]pyrimidin-7-amine]
Ljungan virus strain 145
  inhibition at 10 µM: 34%

## Cc1cc(NCc2ccccc2)n2ncc(-c3ccccc3)c2n1 [Ex. 21, N-benzyl-5-methyl-3-phenyl-pyrazolo[1,5-a]pyrimidin-7-amine]
Polio virus strain 1
  inhibition at 10 µM: 78%

## COc1ccc(CCNc2cc(C)nc3c(-c4ccccc4)cnn23)cc1OC [Ex. 22, N-[2-(3,4-dimethoxyphenyl)ethyl]-5-methyl-3-phenyl-pyrazolo[1,5-a]pyrimidin-7-amine]
[1]
  inhibition at 10 µM: 44%

## CC(C)(C)c1cc(NCCCn2ccnc2)n2ncc(-c3ccccc3)c2n1 [Ex. 23, 5-tert-butyl-N-(3-imidazol-1-ylpropyl)-3-phenyl-pyrazolo[1,5-a]pyrimidin-7-amine]
Polio virus strain 1
  inhibition at 10 µM: 94%

## CCCc1cc(NCCCn2ccnc2)n2nc(C)c(-c3ccccc3)c2n1 [Ex. 24, N-(3-imidazol-1-ylpropyl)-2-methyl-3-phenyl-5-propyl-pyrazolo[1,5-a]pyrimidin-7-amine]
Polio virus strain 1
  inhibition at 10 µM: 86%

## Cc1cc(NCCc2ccccc2)n2ncc(-c3ccc(Cl)cc3)c2n1 [Ex. 26, 3-(4-chlorophenyl)-5-methyl-N-phenethyl-pyrazolo[1,5-a]pyrimidin-7-amine]
[1]
  inhibition at 10 µM: 30%

## COc1ccc(CCNc2cc(C)nc3c(-c4ccc(Cl)cc4)cnn23)cc1OC [Ex. 27, 3-(4-chlorophenyl)-N-[2-(3,4-dimethoxyphenyl)ethyl]-5-methyl-pyrazolo[1,5-a]pyrimidin-7-amine]
Polio virus strain 1
  inhibition at 10 µM: 35%

## Cc1cc(NCCCn2ccnc2)n2ncc(-c3ccc(Cl)cc3)c2n1 [Ex. 28, 3-(4-chlorophenyl)-N-(3-imidazol-1-ylpropyl)-5-methyl-pyrazolo[1,5-a]pyrimidin-7-amine]
Polio virus strain 1
  inhibition at 10 µM: 72%

## COc1ccc(CCNc2cc(C)nc3c(-c4ccc(C)cc4)cnn23)cc1OC [Ex. 29, N-[2-(3,4-dimethoxyphenyl)ethyl]-5-methyl-3-(p-tolyl)pyrazolo[1,5-a]pyrimidin-7-amine]
[1]
  inhibition at 10 µM: 62%

## CCc1nn2c(NCCc3ccc(OC)c(OC)c3)cc(C)nc2c1-c1ccccc1 [Ex. 30, N-[2-(3,4-dimethoxyphenyl)ethyl]-2-ethyl-5-methyl-3-phenyl-pyrazolo[1,5-a]pyrimidin-7-amine]
Ljungan virus strain 145
  inhibition at 10 µM: 100%

## CCc1nn2c(NCCCn3ccnc3)cc(C)nc2c1-c1ccccc1 [Ex. 31, 2-ethyl-N-(3-imidazol-1-ylpropyl)-5-methyl-3-phenyl-pyrazolo[1,5-a]pyrimidin-7-amine]
Ljungan virus strain 145
  inhibition at 10 µM: 14%

## Cc1ccc(CCNc2cc(C)nc3c(-c4ccc(Cl)cc4)c(C)nn23)cc1 [Ex. 32, 3-(4-chlorophenyl)-2,5-dimethyl-N-[2-(p-tolyl)ethyl]pyrazolo[1,5-a]pyrimidin-7-amine]
Polio virus strain 1
  inhibition at 10 µM: 25%

## Cc1cc(NCc2ccccn2)n2nc(C)c(-c3ccc(F)cc3)c2n1 [Ex. 37, 3-(4-fluorophenyl)-2,5-dimethyl-N-(2-pyridylmethyl)pyrazolo[1,5-a]pyrimidin-7-amine]
[1]
  inhibition at 10 µM: 78%

## Cc1cc(NC2CCCC2)n2nc(C)c(-c3ccc(F)cc3)c2n1 [Ex. 38, N-cyclopentyl-3-(4-fluorophenyl)-2,5-dimethyl-pyrazolo[1,5-a]pyrimidin-7-amine]
Ljungan virus strain 145
  inhibition at 10 µM: 84%

## Cc1cc(NCc2cccnc2)n2nc(C)c(-c3ccccc3)c2n1 [Ex. 39, 2,5-dimethyl-3-phenyl-N-(3-pyridylmethyl)pyrazolo[1,5-a]pyrimidin-7-amine]
Polio virus strain 1
  inhibition at 1 µM: 71%

## Cc1cc(NCc2ccccn2)n2nc(C)c(-c3ccc(Cl)cc3)c2n1 [Ex. 42, 3-(4-chlorophenyl)-2,5-dimethyl-N-(2-pyridylmethyl)pyrazolo[1,5-a]pyrimidin-7-amine]
Polio virus strain 1
  inhibition at 1 µM: 96%

## Cc1cc(NCCCn2ccnc2)n2nc(C)c(-c3ccc(Cl)cc3)c2n1 [Ex. 44, 3-(4-chlorophenyl)-N-(3-imidazol-1-ylpropyl)-2,5-dimethyl-pyrazolo[1,5-a]pyrimidin-7-amine]
Polio virus strain 1
  inhibition at 1 µM: 70%

## COc1ccc(-c2c(C)nn3c(Nc4ccc(C)cc4)cc(C)nc23)cc1OC [Ex. 48, 3-(3,4-dimethoxyphenyl)-2,5-dimethyl-N-(p-tolyl)pyrazolo[1,5-a]pyrimidin-7-amine]
Polio virus strain 1
  inhibition at 1 µM: 79%

## COc1ccc(Nc2cc(C)nc3c(-c4ccc(OC)c(OC)c4)c(C)nn23)cc1 [Ex. 49, 3-(3,4-dimethoxyphenyl)-N-(4-methoxyphenyl)-2,5-dimethyl-pyrazolo[1,5-a]pyrimidin-7-amine]
[1]
  inhibition at 1 µM: 80%

## COc1ccc(-c2c(C)nn3c(Nc4cccc(C)c4)cc(C)nc23)cc1OC [Ex. 50, 3-(3,4-dimethoxyphenyl)-2,5-dimethyl-N-(m-tolyl)pyrazolo[1,5-a]pyrimidin-7-amine]
Polio virus strain 1
  inhibition at 1 µM: 81%

## COc1ccc(-c2c(C)nn3c(Nc4ccc(F)cc4)cc(C)nc23)cc1OC [Ex. 53, 3-(3,4-dimethoxyphenyl)-N-(4-fluorophenyl)-2,5-dimethyl-pyrazolo[1,5-a]pyrimidin-7-amine]
Polio virus strain 1
  inhibition at 10 µM: 84%

## CCOc1ccc(Nc2cc(C)nc3c(-c4ccc(OC)c(OC)c4)c(C)nn23)cc1 [Ex. 54, 3-(3,4-dimethoxyphenyl)-N-(4-ethoxyphenyl)-2,5-dimethyl-pyrazolo[1,5-a]pyrimidin-7-amine]
Polio virus strain 1
  inhibition at 1 µM: 89%

## COc1ccc(-c2c(C)nn3c(Nc4ccc(NC(C)=O)cc4)cc(C)nc23)cc1OC [Ex. 58, N-[4-[[3-(3,4-dimethoxyphenyl)-2,5-dimethyl-pyrazolo[1,5-a]pyrimidin-7-yl]amino]phenyl]acetamide]
Polio virus strain 1
  inhibition at 0.1 µM: 74%

## COc1ccc(-c2c(C)nn3c(Nc4ccc(Cl)c(Cl)c4)cc(C)nc23)cc1OC [Ex. 59, N-(3,4-dichlorophenyl)-3-(3,4-dimethoxyphenyl)-2,5-dimethyl-pyrazolo[1,5-a]pyrimidin-7-amine]
[1]
  inhibition at 10 µM: 88%

## CCc1ccc(Nc2cc(C)nc3c(-c4ccc(OC)c(OC)c4)c(C)nn23)cc1 [Ex. 62, 3-(3,4-dimethoxyphenyl)-N-(4-ethylphenyl)-2,5-dimethyl-pyrazolo[1,5-a]pyrimidin-7-amine]
Polio virus strain 1
  inhibition at 1 µM: 97%

## CCCCc1ccc(Nc2cc(C)nc3c(-c4ccc(OC)c(OC)c4)c(C)nn23)cc1 [Ex. 63, N-(4-butylphenyl)-3-(3,4-dimethoxyphenyl)-2,5-dimethyl-pyrazolo[1,5-a]pyrimidin-7-amine]
Polio virus strain 1
  inhibition at 1 µM: 87%

## COc1ccc(-c2c(C)nn3c(Nc4cc(Cl)cc(Cl)c4)cc(C)nc23)cc1OC [Ex. 64, N-(3,5-dichlorophenyl)-3-(3,4-dimethoxyphenyl)-2,5-dimethyl-pyrazolo[1,5-a]pyrimidin-7-amine]
Polio virus strain 1
  inhibition at 1 µM: 20%

## COc1ccc(-c2c(C)nn3c(NCc4cccnc4)cc(C)nc23)cc1 [Ex. 65, 3-(4-methoxyphenyl)-2,5-dimethyl-N-(3-pyridylmethyl)pyrazolo[1,5-a]pyrimidin-7-amine]
[1]
  inhibition at 1 µM: 91%

## COc1ccc(-c2c(C)nn3c(NCc4ccncc4)cc(C)nc23)cc1 [Ex. 66, 3-(4-methoxyphenyl)-2,5-dimethyl-N-(4-pyridylmethyl)pyrazolo[1,5-a]pyrimidin-7-amine]
Polio virus strain 1
  inhibition at 0.01 µM: 100%

## COc1ccc(-c2c(C)nn3c(NCCCn4ccnc4)cc(C)nc23)cc1 [Ex. 67, N-(3-imidazol-1-ylpropyl)-3-(4-methoxyphenyl)-2,5-dimethyl-pyrazolo[1,5-a]pyrimidin-7-amine]
Polio virus strain 1
  inhibition at 1 µM: 63%

## Cc1cc(NCc2cccnc2)n2nc(C)c(-c3cccs3)c2n1 [Ex. 69, 2,5-dimethyl-N-(3-pyridylmethyl)-3-(2-thienyl)pyrazolo[1,5-a]pyrimidin-7-amine]
[1]
  inhibition at 10 µM: 65%

## Cc1cc(NCc2ccncc2)n2nc(C)c(-c3cccs3)c2n1 [Ex. 70, 2,5-dimethyl-N-(4-pyridylmethyl)-3-(2-thienyl)pyrazolo[1,5-a]pyrimidin-7-amine]
Polio virus strain 1
  inhibition at 10 µM: 89%

## Cc1cc(NCCCn2ccnc2)n2nc(C)c(-c3cccs3)c2n1 [Ex. 71, N-(3-imidazol-1-ylpropyl)-2,5-dimethyl-3-(2-thienyl)pyrazolo[1,5-a]pyrimidin-7-amine]
Polio virus strain 1
  inhibition at 10 µM: 72%

## COc1ccc(-c2c(C)nn3c(NCc4ccnc(C)n4)cc(C)nc23)cc1OC [Ex. 87, 3-(3,4-dimethoxyphenyl)-2,5-dimethyl-N-[(2-methylpyrimidin-4-yl)methyl]pyrazolo[1,5-a]pyrimidin-7-amine]
Polio virus strain 1
  inhibition at 0.1 µM: 100%

## COc1ccc(-c2c(C)nn3c(NCCc4ccncc4)cc(C)nc23)cc1OC [Ex. 89, 3-(3,4-dimethoxyphenyl)-2,5-dimethyl-N-[2-(4-pyridyl)ethyl]pyrazolo[1,5-a]pyrimidin-7-amine]
[1]
  inhibition at 1 µM: 100%

## COC(=O)c1ccc(-c2c(C)nn3c(NCc4ccc(F)cc4)cc(C)nc23)cc1 [Ex. 107, methyl 4-[7-[(4-fluorophenyl)methylamino]-2,5-dimethyl-pyrazolo[1,5-a]pyrimidin-3-yl]benzoate]
Polio virus strain 1
  inhibition at 1 µM: 21%

## CCOc1ccc(-c2c(C)nn3c(NCc4ccc(F)cc4)cc(C)nc23)cc1OCC [Ex. 109, 3-(3,4-diethoxyphenyl)-N-[(4-fluorophenyl)methyl]-2,5-dimethyl-pyrazolo[1,5-a]pyrimidin-7-amine]
Polio virus strain 1
  inhibition at 1 µM: 88%
